MIC data for four compounds are collected here from ChEMBL document CHEMBL1156365, “Polyacetylene carboxylic acids from Mitrephora celebica” (2001).

Molecules are shown by their SMILES. Converted amounts (≈) assume the structure as drawn.

Usually MIC stands for the lowest concentration found to suppress growth.

One assay deals with Staphylococcus aureus. Briefly: Antibacterial activity against methicillin-resistant Staphylococcus aureus by NCCLS M7-A4 method. It counts as functional.
The subject of assay [1] is Mycolicibacterium smegmatis. Briefly: Antibacterial activity against Mycobacterium smegmatis. It counts as functional.

For `C=CCC/C=C/C#CC#CCCCCCCCC(=O)O`, the results for the minimum inhibitory concentration (MIC) (in the assay with Staphylococcus aureus; in assay [1]) were 25 µg/mL (≈ 91.8 µM) and 12.5 µg/mL (≈ 45.9 µM), respectively.
Compound `NNC(=O)c1ccncc1` [ISONIAZID] came in with an MIC in assay [1] of 0.8 µg/mL (≈ 5.83 µM).
As for `C=CCCC#CC#CC#CCCCCCCCC(=O)O` [OROPHEIC ACID], the minimal inhibitory concentration (MIC) (against Staphylococcus aureus; in assay [1]) was 12.5 µg/mL (≈ 46.2 µM) throughout.
In the assay with Staphylococcus aureus, `CN[C@H](CC(C)C)C(=O)N[C@H]1C(=O)N[C@@H](CC(N)=O)C(=O)N[C@H]2C(=O)N[C@H]3C(=O)N[C@H](C(=O)N[C@H](C(=O)O)c4cc(O)cc(O)c4-c4cc3ccc4O)[C@H](O)c3ccc(c(Cl)c3)Oc3cc2cc(c3O[C@@H]2O[C@H](CO)[C@@H](O)[C@H](O)[C@H]2O[C@H]2C[C@](C)(N)[C@H](O)[C@H](C)O2)Oc2ccc(cc2Cl)[C@H]1O` [VANCOMYCIN] showed an MIC of 0.8 µg/mL (≈ 0.552 µM).
